In one data set the test system is skin. The settings on record: Cornwell and Barry 1993; cited from earlier work.
For data set [1] the following is noted: in words; cited from earlier work.
Another data set relates to porcine dermatomed skin. The experiment in a line: Skin penetration of rhodamine 123 (fluorescence and confocal microscopy). In kind it is in vitro ADME. The settings on record: 10 μg rhodamine 123 equivalent, 6 hours, cryosections. Here is the method:
For stratum corneum (SC) 0-20 μm and for epidermis 20-100 μm XZ optical sections from confocal microscopic images were used for quantifying the fluorescence pixels. The nanoparticles were prepared using the method described in Table 8-1.
Later the skin was sectioned with cryotome and observed under a fluorescent microscope.

The conditions of data set [2]: cited from earlier work.

A word on the Log P: it is a log measure of how a compound divides between an organic and an aqueous phase.

For the compound `O=c1[nH]cc(F)c(=O)[nH]1` [5-Fluorouracil (5-FU), 5-Fluorouracil], the skin permeability result in the data set with skin is reported as “poorly permeable through skin”. Besides, in data set [1], the solubility in water entry is listed as “partially soluble in cold water”.

Turning to `COC(=O)c1ccccc1-c1c2ccc(=N)cc-2oc2cc(N)ccc12.Cl` [Rhodamine 123], the penetration into skin entry with porcine dermatomed skin is listed as “restricted to the top layer of skin (SC)”. In data set [2], the “Log P” value is listed as 1.2.

These data come from US9233110B2, “Protein nanocarriers for topical delivery” (priority 2008, dated 2016).
